# Data as given in PubChem BioAssay (NCI).
#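 GI50 is the concentration that inhibits growth by half. Definition used: TGI = concentration required for complete inhibition of growth.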
# Legend:
# Assay in all cases: NCI anticancer screen, dose series, 384-well format
# SF-539 CNS = system: SF-539 CNS
# EKVX NSCLC = system: EKVX NSCLC
# SK-MEL-5 melanoma = system: SK-MEL-5 melanoma
# SK-MEL-2 melanoma = system: SK-MEL-2 melanoma
# SF-295 CNS = system: SF-295 CNS
# UACC-62 melanoma = system: UACC-62 melanoma
# UACC-257 melanoma = system: UACC-257 melanoma
# MALME-3M melanoma = system: MALME-3M melanoma
# SK-OV-3 ovarian = system: SK-OV-3 ovarian
# HL-60(TB) leukemia = system: HL-60(TB) leukemia
# NCI-H522 lung = system: NCI-H522 lung
# CAKI-1 renal = system: CAKI-1 renal
# MOLT-4 leukemia = system: MOLT-4 leukemia
# NCI-H322M lung = system: NCI-H322M lung
# SNB-75 CNS = system: SNB-75 CNS
# SF-268 CNS = system: SF-268 CNS
# NCI-H23 lung = system: NCI-H23 lung
# SNB-19 CNS = system: SNB-19 CNS
# SR leukemia = system: SR leukemia
# OVCAR-3 ovarian = system: OVCAR-3 ovarian
# HS 578T breast = system: HS 578T breast
# NCI-H226 lung = system: NCI-H226 lung
# 786-0 renal = system: 786-0 renal
# MDA-MB-468 breast = system: MDA-MB-468 breast
# BT-549 breast = system: BT-549 breast
# K-562 leukemia = system: K-562 leukemia
# OVCAR-5 ovarian = system: OVCAR-5 ovarian
# SN12C renal = system: SN12C renal
# KM12 colon = system: KM12 colon
# HT29 colon = system: HT29 colon
# RPMI-8226 leukemia = system: RPMI-8226 leukemia
# MDA-MB-231 breast = system: MDA-MB-231 breast
# HOP-62 NSCLC = system: HOP-62 NSCLC
# T-47D breast = system: T-47D breast
# HCT-15 colon = system: HCT-15 colon
# DU-145 prostate = system: DU-145 prostate
# M14 melanoma = system: M14 melanoma
# TK-10 renal = system: TK-10 renal
# A498 renal = system: A498 renal
# RXF 393 renal = system: RXF 393 renal
# CCRF-CEM leukemia = system: CCRF-CEM leukemia
# U251 glioblastoma = system: U251 glioblastoma
# SW-620 colon = system: SW-620 colon
# SK-MEL-28 melanoma = system: SK-MEL-28 melanoma
# NCI-H460 NSCLC = system: NCI-H460 NSCLC
# A549 NSCLC = system: A549 NSCLC
# COLO 205 colon = system: COLO 205 colon
# MDA-MB-435 melanoma = system: MDA-MB-435 melanoma
# HCC-2998 colon = system: HCC-2998 colon
# UO-31 renal = system: UO-31 renal
# OVCAR-8 ovarian = system: OVCAR-8 ovarian
# PC-3 prostate = system: PC-3 prostate
# ACHN renal = system: ACHN renal
# HOP-92 NSCLC = system: HOP-92 NSCLC
# NCI/ADR-RES ovarian = system: NCI/ADR-RES ovarian
# IGROV1 ovarian = system: IGROV1 ovarian
# HCT-116 colon = system: HCT-116 colon
# OVCAR-4 ovarian = system: OVCAR-4 ovarian
# LOX IMVI melanoma = system: LOX IMVI melanoma
structure (smiles),measurement,setting,value
CC(=O)c1ccc2c(c1)c1cc(C(C)=O)ccc1n2CCNC(C)C,GI50,SF-539 CNS,228 nM
same,TGI,SF-539 CNS,669 nM
same,GI50,EKVX NSCLC,409 nM
same,TGI,EKVX NSCLC,931 nM
same,GI50,SK-MEL-5 melanoma,178 nM
same,TGI,SK-MEL-5 melanoma,322 nM
same,GI50,SK-MEL-2 melanoma,263 nM
same,TGI,SK-MEL-2 melanoma,478 nM
same,GI50,SF-295 CNS,309 nM
same,TGI,SF-295 CNS,1170 nM
same,GI50,UACC-62 melanoma,170 nM
same,TGI,UACC-62 melanoma,313 nM
same,GI50,UACC-257 melanoma,182 nM
same,TGI,UACC-257 melanoma,351 nM
same,GI50,MALME-3M melanoma,172 nM
same,TGI,MALME-3M melanoma,319 nM
same,GI50,SK-OV-3 ovarian,300 nM
same,TGI,SK-OV-3 ovarian,1230 nM
same,GI50,HL-60(TB) leukemia,201 nM
same,TGI,HL-60(TB) leukemia,349 nM
same,GI50,NCI-H522 lung,152 nM
same,TGI,NCI-H522 lung,307 nM
same,GI50,CAKI-1 renal,150 nM
same,TGI,CAKI-1 renal,317 nM
same,GI50,MOLT-4 leukemia,34.6 nM
same,TGI,MOLT-4 leukemia,101 nM
same,GI50,NCI-H322M lung,234 nM
same,TGI,NCI-H322M lung,543 nM
same,GI50,SNB-75 CNS,264 nM
same,TGI,SNB-75 CNS,743 nM
same,GI50,SF-268 CNS,222 nM
same,TGI,SF-268 CNS,618 nM
same,GI50,NCI-H23 lung,193 nM
same,TGI,NCI-H23 lung,461 nM
same,GI50,SNB-19 CNS,279 nM
same,TGI,SNB-19 CNS,2650 nM
same,GI50,SR leukemia,33.8 nM
same,TGI,SR leukemia,86.6 nM
same,GI50,OVCAR-3 ovarian,273 nM
same,TGI,OVCAR-3 ovarian,969 nM
same,GI50,HS 578T breast,195 nM
same,TGI,HS 578T breast,376 nM
same,GI50,NCI-H226 lung,153 nM
same,TGI,NCI-H226 lung,308 nM
same,GI50,786-0 renal,228 nM
same,TGI,786-0 renal,855 nM
same,GI50,MDA-MB-468 breast,164 nM
same,TGI,MDA-MB-468 breast,306 nM
same,GI50,BT-549 breast,348 nM
same,TGI,BT-549 breast,932 nM
same,GI50,K-562 leukemia,178 nM
same,TGI,K-562 leukemia,405 nM
same,GI50,OVCAR-5 ovarian,433 nM
same,TGI,OVCAR-5 ovarian,14300 nM
same,GI50,SN12C renal,221 nM
same,TGI,SN12C renal,728 nM
same,GI50,KM12 colon,286 nM
same,TGI,KM12 colon,2270 nM
same,GI50,HT29 colon,206 nM
same,TGI,HT29 colon,1030 nM
same,GI50,RPMI-8226 leukemia,164 nM
same,TGI,RPMI-8226 leukemia,303 nM
same,GI50,MDA-MB-231 breast,194 nM
same,TGI,MDA-MB-231 breast,446 nM
same,GI50,HOP-62 NSCLC,201 nM
same,TGI,HOP-62 NSCLC,755 nM
same,GI50,T-47D breast,258 nM
same,TGI,T-47D breast,619 nM
same,GI50,HCT-15 colon,206 nM
same,TGI,HCT-15 colon,464 nM
same,GI50,DU-145 prostate,344 nM
same,TGI,DU-145 prostate,1430 nM
same,GI50,M14 melanoma,259 nM
same,TGI,M14 melanoma,665 nM
same,GI50,TK-10 renal,472 nM
same,TGI,TK-10 renal,11700 nM
same,GI50,A498 renal,182 nM
same,TGI,A498 renal,329 nM
same,GI50,RXF 393 renal,170 nM
same,TGI,RXF 393 renal,529 nM
same,GI50,CCRF-CEM leukemia,148 nM
same,TGI,CCRF-CEM leukemia,299 nM
same,GI50,U251 glioblastoma,248 nM
same,TGI,U251 glioblastoma,715 nM
same,GI50,SW-620 colon,207 nM
same,TGI,SW-620 colon,736 nM
same,GI50,SK-MEL-28 melanoma,207 nM
same,TGI,SK-MEL-28 melanoma,435 nM
same,GI50,NCI-H460 NSCLC,164 nM
same,TGI,NCI-H460 NSCLC,316 nM
same,GI50,A549 NSCLC,189 nM
same,TGI,A549 NSCLC,353 nM
same,GI50,COLO 205 colon,164 nM
same,TGI,COLO 205 colon,311 nM
same,GI50,MDA-MB-435 melanoma,320 nM
same,TGI,MDA-MB-435 melanoma,922 nM
same,GI50,HCC-2998 colon,311 nM
same,TGI,HCC-2998 colon,811 nM
same,GI50,UO-31 renal,168 nM
same,TGI,UO-31 renal,308 nM
same,GI50,OVCAR-8 ovarian,276 nM
same,TGI,OVCAR-8 ovarian,1320 nM
same,GI50,PC-3 prostate,279 nM
same,TGI,PC-3 prostate,782 nM
same,GI50,ACHN renal,101 nM
same,TGI,ACHN renal,245 nM
same,GI50,HOP-92 NSCLC,225 nM
same,TGI,HOP-92 NSCLC,656 nM
same,GI50,NCI/ADR-RES ovarian,204 nM
same,TGI,NCI/ADR-RES ovarian,472 nM
same,GI50,IGROV1 ovarian,480 nM
same,TGI,IGROV1 ovarian,15100 nM
same,GI50,HCT-116 colon,199 nM
same,TGI,HCT-116 colon,731 nM
same,GI50,OVCAR-4 ovarian,244 nM
same,TGI,OVCAR-4 ovarian,637 nM
same,GI50,LOX IMVI melanoma,192 nM
same,TGI,LOX IMVI melanoma,338 nM
